Activity calls are given as the source filed them.
Key:
[1] = Late stage results from the probe development effort to identify inhibitors of the protein methylesterase PME-1: Luminescence-based counterscreen assay to identify cytotoxic compounds.; type: functional
[2] = target: Acylamino-acid-releasing enzyme (Homo sapiens, UniProt P13798); experiment: endogenous PME-1 and serine hydrolase inhibition – cell lysate, mouse brain cytosol, FP-rhodamine, gel ABPP, selectivity assay for PME-1 inhibitor project, dose response, panel member APEH Assay Panel member description: Inhibition of N-acylaminoacyl-peptide hydrolase (APEH) (anti-target) (AID 2366)
[3] = microbe, parasite or virus in culture; type: functional; details: Mycobacterium tuberculosis
cells = type: functional
Streptococcus = experiment: GAS UMAA2166 growth inhibition – luminescence, BacTiterGlo, counter-screen for streptokinase expression inhibitor project, dose response (AID 1915); type: functional, organism-based;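 also: potency for reduction of bacterial viability or growth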
[4] = target: NACHT, LRR and PYD domains-containing protein 3 (Homo sapiens, UniProt Q96P20); experiment: NALP3 inhibitors in yeast, dose response, luminescent (AID 488799); type: functional
[5] = tested on: Streptococcus sp. 'group A'; experiment: Streptococcus pyogenes SK(-)GAS viability under kanamycin – luminescence, BacTiterGlo, confirmation, counter-screen for streptokinase expression inhibitor project, dose response (AID 1900); type: functional, organism-based
[6] = Vero E6 cell cytotoxicity, dose response, cytotoxicity control for non-replicating M. tuberculosis project, secondary assay (AID 492998); type: functional, VeroE6; details: Vero C1008
[7] = target: T1, Alkaline phosphatase, tissue-nonspecific isozyme (Homo sapiens, UniProt P05186); experiment: potency against alkaline phosphatase TNAP – biochemical, luminescent, dose response, SAR follow-up (AID 1056)
T1 sequence (P05186 whole entry): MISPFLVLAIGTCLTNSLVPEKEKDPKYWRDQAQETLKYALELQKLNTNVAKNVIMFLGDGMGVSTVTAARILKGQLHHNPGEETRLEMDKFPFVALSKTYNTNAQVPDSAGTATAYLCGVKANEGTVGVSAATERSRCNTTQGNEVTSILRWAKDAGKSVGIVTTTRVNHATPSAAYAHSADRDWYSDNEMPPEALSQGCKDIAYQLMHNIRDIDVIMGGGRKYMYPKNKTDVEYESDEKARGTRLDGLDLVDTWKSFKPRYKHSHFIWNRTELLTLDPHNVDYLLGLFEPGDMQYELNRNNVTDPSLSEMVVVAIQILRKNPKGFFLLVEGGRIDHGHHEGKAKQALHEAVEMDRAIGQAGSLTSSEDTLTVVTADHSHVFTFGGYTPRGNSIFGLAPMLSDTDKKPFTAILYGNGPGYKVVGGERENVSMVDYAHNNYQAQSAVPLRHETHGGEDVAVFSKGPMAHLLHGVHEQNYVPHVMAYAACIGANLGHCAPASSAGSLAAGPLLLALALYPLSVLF

Estrogen receptor = target: T2, Estrogen receptor (Homo sapiens, UniProt P03372);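 also: potency for inhibiting coactivator peptide recruitment to the receptor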
T2 sequence (P03372 whole entry): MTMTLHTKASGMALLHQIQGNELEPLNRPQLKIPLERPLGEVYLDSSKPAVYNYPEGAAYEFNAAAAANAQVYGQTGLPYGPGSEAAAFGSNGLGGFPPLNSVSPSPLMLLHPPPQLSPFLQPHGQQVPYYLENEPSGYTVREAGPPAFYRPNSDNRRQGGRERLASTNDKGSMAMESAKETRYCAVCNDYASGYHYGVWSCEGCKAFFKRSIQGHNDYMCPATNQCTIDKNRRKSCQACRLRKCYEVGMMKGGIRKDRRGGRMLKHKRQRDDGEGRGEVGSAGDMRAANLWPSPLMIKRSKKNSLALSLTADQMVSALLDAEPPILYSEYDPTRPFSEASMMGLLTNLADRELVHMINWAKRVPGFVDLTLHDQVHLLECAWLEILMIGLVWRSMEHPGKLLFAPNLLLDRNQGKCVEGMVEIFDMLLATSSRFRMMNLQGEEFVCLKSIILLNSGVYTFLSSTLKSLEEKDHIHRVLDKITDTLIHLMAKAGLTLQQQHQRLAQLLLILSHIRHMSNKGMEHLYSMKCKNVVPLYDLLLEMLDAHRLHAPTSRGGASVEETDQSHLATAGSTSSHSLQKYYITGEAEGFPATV

[8] = target: Alkaline phosphatase, placental type (Homo sapiens, UniProt P05187); experiment: human placental alkaline phosphatase inhibition – biochemical, luminescence, confirmation (AID 1512); type: functional
[9] = target: T3, Kappa-type opioid receptor (Homo sapiens, UniProt P41145); experiment: SAR analysis of small molecule agonists of the kappa opioid receptor via a luminescent beta-arrestin assay. [Related pubchem assays (depositor defined):AID1777, AID1786, AID1966, AID2133, AID2136, AID2348, AID2352, AID2357, AID2359, AID2370, AID2420, AID2478, AID2491, AID2492, AID2493, AID2497, AID2498, AID2500, AID449737, AID488822, AID488842]; type: functional
T3 sequence (P41145 whole entry): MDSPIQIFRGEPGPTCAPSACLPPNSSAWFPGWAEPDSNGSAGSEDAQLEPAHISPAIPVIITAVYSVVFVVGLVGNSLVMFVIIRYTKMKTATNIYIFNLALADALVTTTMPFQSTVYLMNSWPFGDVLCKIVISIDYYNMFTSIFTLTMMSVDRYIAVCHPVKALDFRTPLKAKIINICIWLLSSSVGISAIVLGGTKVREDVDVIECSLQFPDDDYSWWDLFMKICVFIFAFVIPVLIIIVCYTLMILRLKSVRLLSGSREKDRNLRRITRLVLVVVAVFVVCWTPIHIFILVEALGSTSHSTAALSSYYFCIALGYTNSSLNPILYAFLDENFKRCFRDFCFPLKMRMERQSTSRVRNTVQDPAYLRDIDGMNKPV

[10] = target: T4, Delta-type opioid receptor (Homo sapiens, UniProt P41143); experiment: delta opioid receptor blockers – image-based, SAR follow-up (AID 2357); type: functional
T4 sequence (P41143 whole entry): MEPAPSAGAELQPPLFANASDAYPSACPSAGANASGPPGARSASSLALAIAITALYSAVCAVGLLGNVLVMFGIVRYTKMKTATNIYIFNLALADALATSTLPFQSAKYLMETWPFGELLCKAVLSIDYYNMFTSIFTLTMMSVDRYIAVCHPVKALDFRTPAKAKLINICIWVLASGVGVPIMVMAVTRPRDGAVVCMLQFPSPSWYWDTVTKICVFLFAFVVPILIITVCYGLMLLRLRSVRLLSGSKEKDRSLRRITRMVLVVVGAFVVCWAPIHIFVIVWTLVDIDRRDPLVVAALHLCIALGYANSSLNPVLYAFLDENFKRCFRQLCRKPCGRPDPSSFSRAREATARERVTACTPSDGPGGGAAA

[11] = target: T4, Delta-type opioid receptor; experiment: HTS Image-Based Screen for Antagonists of the DOR Receptor. [Related pubchem assays (depositor defined):AID1777, AID1785, AID1786, AID2133]; type: functional
Mu-type opioid receptor [12] = target: T5, Mu-type opioid receptor (Homo sapiens, UniProt P35372); experiment: HTS Image-Based Screen for Agonists of the MOR Receptor. [Related pubchem assays (depositor defined):AID1777, AID1785, AID1786, AID2133]; type: functional
T5 sequence (P35372 whole entry): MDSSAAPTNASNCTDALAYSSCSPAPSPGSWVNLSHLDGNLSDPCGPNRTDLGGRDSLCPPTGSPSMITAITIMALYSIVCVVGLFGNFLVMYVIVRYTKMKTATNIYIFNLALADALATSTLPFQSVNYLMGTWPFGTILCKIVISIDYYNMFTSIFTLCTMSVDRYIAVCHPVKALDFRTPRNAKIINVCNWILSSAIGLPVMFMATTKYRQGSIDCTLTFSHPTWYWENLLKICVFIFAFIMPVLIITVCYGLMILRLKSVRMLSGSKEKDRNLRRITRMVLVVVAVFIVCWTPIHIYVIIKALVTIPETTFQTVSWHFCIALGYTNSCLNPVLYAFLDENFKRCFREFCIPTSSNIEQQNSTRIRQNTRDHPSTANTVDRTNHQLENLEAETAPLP

[13] = target: T3, Kappa-type opioid receptor; type: functional
[14] = target: T3, Kappa-type opioid receptor; type: functional; remark: listed apart in the source
[15] = target: T4, Delta-type opioid receptor; experiment: HTS Image-Based Screen for Agonists of the DOR Receptor. [Related pubchem assays (depositor defined):AID1777, AID1786, AID2133]; type: functional
Mu-type opioid receptor [16] = target: T5, Mu-type opioid receptor; experiment: mu opioid receptor activators, image-based, SAR follow-up (AID 2352); type: functional
[17] = target: T4, Delta-type opioid receptor; experiment: DOR agonists, SAR follow-up, image-based (AID 2370); type: functional
[18] = target: T3, Kappa-type opioid receptor; experiment: kappa opioid receptor activation potency – imaging, image-based, SAR follow-up (AID 2359); type: functional
[19] = target: T3, Kappa-type opioid receptor; experiment: kappa opioid receptor blockers, image-based, SAR follow-up (AID 2348); type: functional
Mu-type opioid receptor [20] = target: T5, Mu-type opioid receptor; experiment: mu opioid receptor blockers – image-based, SAR follow-up (AID 2420); type: functional;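 also: compounds added before stimulation of receptor with agonist DAMGO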
[21] = target: Eukaryotic translation initiation factor 4H (Homo sapiens, UniProt Q15056); experiment: eIF4H binding inhibition – biochemical, uHTS, fluorescence polarization, translation initiation inhibitor project, primary screen (AID 2012)
[22] = target: DNA dC->dU-editing enzyme APOBEC-3G (Homo sapiens, UniProt Q9HC16); type: functional;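 also: Dose-response counterscreen measuring inhibition of APOBEC3G DNA deaminase activity, run while confirming APOBEC3A inhibitors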
[23] = target: DNA dC->dU-editing enzyme APOBEC-3A (Homo sapiens, UniProt P31941); experiment: Dose Response confirmation of small molecule APOBEC3A DNA Deaminase Inhibitors via a fluorescence-based single-stranded DNA deaminase assay. [Related pubchem assays (depositor defined):AID493011, AID493024]; type: functional
Sequence of DNA dC->dU-editing enzyme APOBEC-3A (P31941 whole entry): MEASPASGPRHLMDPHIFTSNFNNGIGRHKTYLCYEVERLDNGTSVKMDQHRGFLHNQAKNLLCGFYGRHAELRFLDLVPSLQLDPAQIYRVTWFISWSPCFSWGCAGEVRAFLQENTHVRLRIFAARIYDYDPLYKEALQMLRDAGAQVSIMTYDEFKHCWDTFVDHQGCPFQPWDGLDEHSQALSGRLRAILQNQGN

[24] = target: Polyadenylate-binding protein 1 (Homo sapiens, UniProt P11940); experiment: blockers of PABP interaction with poly(A) – biochemical, fluorescence polarization, […] (AID 2014)
Vero = experiment: cells; type: functional; details: Chlorocebus sabaeus
[25] = target: T6, Type-1 angiotensin II receptor (Homo sapiens, UniProt P30556); experiment: agonist activity at AGTR1 – cell-based, uHTS hits, selectivity assay for APJ receptor agonist project, dose response (AID 488865); type: functional;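 also: beta-arrestin recruitment to AT1 measured by enzyme fragment complementation luminescence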
T6 sequence (P30556 whole entry): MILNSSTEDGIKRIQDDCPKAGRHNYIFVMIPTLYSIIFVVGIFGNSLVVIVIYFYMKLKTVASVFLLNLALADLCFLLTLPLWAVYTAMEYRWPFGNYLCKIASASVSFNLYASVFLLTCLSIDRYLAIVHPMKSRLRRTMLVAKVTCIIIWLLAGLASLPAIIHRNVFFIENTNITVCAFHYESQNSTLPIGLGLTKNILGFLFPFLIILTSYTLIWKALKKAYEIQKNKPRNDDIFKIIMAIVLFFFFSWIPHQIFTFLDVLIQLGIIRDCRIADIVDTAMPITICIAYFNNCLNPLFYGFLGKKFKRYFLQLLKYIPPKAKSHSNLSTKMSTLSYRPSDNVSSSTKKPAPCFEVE

[26] = target: T7, Voltage-gated N-type calcium channel alpha-1B subunit/Amyloid beta A4 precursor protein-binding family A member 1 (Homo sapiens, UniProt Q00975+Q02410); type: protein assay
T7 sequence (Q00975 whole entry): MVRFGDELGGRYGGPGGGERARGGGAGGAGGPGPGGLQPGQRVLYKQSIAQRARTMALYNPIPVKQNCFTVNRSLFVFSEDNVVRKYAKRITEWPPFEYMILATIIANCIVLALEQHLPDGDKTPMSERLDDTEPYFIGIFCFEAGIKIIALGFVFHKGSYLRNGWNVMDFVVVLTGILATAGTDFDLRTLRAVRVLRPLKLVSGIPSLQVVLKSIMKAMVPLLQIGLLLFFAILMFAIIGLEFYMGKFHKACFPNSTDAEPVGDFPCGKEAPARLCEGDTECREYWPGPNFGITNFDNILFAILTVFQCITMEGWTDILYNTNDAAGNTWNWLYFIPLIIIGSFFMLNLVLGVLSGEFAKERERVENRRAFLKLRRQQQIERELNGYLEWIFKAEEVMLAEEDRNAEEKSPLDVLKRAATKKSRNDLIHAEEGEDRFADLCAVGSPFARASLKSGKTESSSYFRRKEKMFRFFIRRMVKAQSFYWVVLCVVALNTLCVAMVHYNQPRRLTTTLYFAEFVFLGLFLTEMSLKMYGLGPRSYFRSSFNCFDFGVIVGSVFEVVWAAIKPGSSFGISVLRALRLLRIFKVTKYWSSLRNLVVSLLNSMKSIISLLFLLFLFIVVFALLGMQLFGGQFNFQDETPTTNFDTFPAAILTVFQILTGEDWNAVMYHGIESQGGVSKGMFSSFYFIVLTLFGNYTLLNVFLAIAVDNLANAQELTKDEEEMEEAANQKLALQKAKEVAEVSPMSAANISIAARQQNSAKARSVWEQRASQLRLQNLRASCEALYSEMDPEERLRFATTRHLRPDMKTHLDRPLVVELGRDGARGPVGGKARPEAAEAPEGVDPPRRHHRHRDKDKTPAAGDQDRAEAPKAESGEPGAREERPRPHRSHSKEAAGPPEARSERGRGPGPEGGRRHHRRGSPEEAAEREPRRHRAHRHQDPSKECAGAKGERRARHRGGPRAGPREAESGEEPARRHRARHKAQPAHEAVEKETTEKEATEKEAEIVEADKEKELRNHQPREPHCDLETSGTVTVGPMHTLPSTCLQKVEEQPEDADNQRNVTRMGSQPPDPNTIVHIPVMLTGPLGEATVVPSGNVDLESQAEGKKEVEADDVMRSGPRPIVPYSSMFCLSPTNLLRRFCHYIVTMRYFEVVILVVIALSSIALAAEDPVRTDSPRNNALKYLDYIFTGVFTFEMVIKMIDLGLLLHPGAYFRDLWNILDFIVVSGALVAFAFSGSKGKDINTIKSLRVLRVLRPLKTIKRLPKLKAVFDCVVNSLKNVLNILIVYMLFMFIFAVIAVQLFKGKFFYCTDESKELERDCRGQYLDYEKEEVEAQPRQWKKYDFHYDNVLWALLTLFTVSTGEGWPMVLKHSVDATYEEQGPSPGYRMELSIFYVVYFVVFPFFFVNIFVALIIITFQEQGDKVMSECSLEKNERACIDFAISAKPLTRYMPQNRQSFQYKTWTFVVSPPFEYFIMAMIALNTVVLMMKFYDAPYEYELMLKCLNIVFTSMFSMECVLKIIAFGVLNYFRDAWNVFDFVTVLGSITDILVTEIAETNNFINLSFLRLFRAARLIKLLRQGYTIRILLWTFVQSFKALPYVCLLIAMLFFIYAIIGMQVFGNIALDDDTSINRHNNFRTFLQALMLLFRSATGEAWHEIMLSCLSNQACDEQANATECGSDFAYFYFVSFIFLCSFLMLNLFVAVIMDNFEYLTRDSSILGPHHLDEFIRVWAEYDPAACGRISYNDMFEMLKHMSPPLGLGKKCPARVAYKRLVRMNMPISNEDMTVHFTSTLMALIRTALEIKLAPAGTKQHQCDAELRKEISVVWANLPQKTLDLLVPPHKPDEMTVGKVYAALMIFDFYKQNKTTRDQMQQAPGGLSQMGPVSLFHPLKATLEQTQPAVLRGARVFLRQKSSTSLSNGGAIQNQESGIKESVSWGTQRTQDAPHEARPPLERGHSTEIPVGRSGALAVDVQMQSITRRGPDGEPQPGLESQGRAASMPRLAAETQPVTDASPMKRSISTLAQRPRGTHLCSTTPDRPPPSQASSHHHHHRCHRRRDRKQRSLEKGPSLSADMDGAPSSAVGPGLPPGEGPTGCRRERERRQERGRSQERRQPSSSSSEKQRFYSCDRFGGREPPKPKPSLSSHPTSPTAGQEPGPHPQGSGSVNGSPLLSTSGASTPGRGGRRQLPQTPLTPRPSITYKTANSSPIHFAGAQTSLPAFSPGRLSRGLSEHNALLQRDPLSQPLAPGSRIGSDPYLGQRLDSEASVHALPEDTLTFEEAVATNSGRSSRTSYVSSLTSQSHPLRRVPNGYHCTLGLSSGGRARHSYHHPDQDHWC
T7 sequence (Q02410 whole entry): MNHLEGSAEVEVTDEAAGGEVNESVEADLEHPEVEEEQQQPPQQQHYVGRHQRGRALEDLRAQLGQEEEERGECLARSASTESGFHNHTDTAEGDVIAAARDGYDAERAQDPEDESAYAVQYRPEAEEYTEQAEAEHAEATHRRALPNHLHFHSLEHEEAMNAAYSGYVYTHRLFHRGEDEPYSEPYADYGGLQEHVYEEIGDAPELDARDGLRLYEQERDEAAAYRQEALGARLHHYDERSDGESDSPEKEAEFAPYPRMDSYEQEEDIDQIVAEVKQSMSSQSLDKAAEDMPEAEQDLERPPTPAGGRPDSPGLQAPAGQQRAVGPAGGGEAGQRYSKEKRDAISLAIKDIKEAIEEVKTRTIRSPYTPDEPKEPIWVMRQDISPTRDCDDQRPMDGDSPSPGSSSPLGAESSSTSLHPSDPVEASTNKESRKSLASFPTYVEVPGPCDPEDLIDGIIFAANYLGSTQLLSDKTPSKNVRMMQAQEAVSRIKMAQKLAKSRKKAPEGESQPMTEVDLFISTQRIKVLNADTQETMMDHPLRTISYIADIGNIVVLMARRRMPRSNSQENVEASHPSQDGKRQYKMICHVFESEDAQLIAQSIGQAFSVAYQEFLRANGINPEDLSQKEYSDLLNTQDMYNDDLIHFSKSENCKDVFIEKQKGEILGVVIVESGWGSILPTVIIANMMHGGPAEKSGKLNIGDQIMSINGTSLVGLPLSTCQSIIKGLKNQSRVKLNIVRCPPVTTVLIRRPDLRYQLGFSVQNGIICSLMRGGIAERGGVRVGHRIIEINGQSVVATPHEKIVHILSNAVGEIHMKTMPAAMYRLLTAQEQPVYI

[27] = target: T7, Voltage-gated N-type calcium channel alpha-1B subunit/Amyloid beta A4 precursor protein-binding family A member 1; type: protein assay; remark: listed apart in the source
Phosphomannomutase 2 = Phosphomannomutase 2 (Homo sapiens, UniProt O15305); experiment: Counter screen SAR assay for PMM2 inhibitors via a fluorescence intensity assay. [Related pubchem assays (depositor defined):AID1545, AID1574]
Sequence of Phosphomannomutase 2 (O15305 whole entry): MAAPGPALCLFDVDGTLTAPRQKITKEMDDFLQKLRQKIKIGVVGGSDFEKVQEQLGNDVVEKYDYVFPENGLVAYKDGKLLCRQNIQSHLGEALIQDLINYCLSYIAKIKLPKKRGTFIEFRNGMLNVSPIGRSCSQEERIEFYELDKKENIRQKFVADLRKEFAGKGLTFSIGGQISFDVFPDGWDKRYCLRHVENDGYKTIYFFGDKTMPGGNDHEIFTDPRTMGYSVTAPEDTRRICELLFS

[28] = NIH3T3 cell viability loss – ATP luminescence, mouse fibroblasts, counter-screen, dose response (AID 2010); type: functional, cell-based;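 also: cells exposed to compound for about 90 hours before reading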
[29] = target: T8, Microphthalmia-associated transcription factor (Homo sapiens, UniProt O75030); experiment: reducers of TRPM1 reporter luminescence, concentration series – cell-based, SK-MEL-5, cherry-picked, set 3, MITF inhibitor project, dose response (AID 493073); type: functional;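 also: SK-MEL-5 melanoma cells with luciferase driven by the MITF target TRPM1 promoter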
T8 sequence (O75030 whole entry): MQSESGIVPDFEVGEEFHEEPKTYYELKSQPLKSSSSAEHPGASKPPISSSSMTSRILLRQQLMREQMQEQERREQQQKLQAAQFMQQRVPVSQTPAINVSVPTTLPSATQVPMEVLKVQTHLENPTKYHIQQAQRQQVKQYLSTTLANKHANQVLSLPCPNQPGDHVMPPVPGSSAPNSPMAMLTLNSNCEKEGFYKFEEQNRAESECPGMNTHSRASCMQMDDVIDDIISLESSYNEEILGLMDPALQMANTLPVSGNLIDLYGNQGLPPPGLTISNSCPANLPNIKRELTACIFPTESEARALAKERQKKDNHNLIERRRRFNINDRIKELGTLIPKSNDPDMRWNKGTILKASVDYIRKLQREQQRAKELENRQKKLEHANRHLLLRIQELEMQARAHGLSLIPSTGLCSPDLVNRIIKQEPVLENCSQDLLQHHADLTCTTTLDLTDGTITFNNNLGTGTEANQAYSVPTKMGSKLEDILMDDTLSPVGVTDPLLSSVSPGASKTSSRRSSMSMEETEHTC

[30] = Trypanosoma cruzi growth suppression in host cells – NIH3T3 host cells, beta-gal luminescence, confirmation (AID 2044); type: functional, cell-based;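 also: intracellular parasites grown in NIH/3T3 mouse fibroblasts as host cells; luminescent beta-galactosidase reporter signal from transgenic T. cruzi replicating inside host cells; inhibitors lower the luminescence signal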
[31] = viability of PTEN-deleted HCT116 cells – cell-based, HCT116 PTEN knockout, dose response (AID 1047); type: functional;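 also: HCT116 colon tumor cells with PTEN knocked out; cells exposed to compound for 60 hours before readout; potency for loss of cell viability measured by luminescence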
[32] = viability of HCT116 lacking mutant beta-catenin – cell-based, human colon tumor, dose response (AID 1045); type: functional;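 also: HCT116 colon tumor cells with beta catenin knocked out; cells exposed to compound for 60 hours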
Trypanosoma cruzi = experiment: anti-trypanosomal activity in host cells – cell-based, plate reader, dry powder, set 3, dose response (AID 493197); type: functional
[33] = NIH/3T3 cell viability loss – mouse embryonic fibroblasts, dry powder, set 2, cytotoxicity control, dose response (AID 493247); type: functional, cell-based; details: Fibroblast
[34] = target: G-protein coupled receptor 55 (Homo sapiens, UniProt Q9Y2T6); experiment: inhibition of LPI-stimulated GPR55 beta-arrestin translocation – imaging, U2OS, beta-arrestin-GFP, LPI agonist, primary screen (AID 2013); type: functional;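 also: antagonist potency measured as reduced agonist-driven arrestin aggregation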

N#C/C(=C\c1cccn1S(=O)(=O)c1cccc(C#N)c1)S(=O)(=O)c1ccc(F)cc1
CC50 [1]: 100 µM (active)
IC50 [2]: > 50 µM (inactive)

O=c1cc(-c2ccccc2Cl)oc2ccc([N+](=O)[O-])c(O)c12
CC50 [3]: 26.2 µM (active)
IC50 (cells): 12.1 µM (active)
EC50 (Streptococcus): 8.09 µM (active)
IC50 [4]: 9.17 µM (active)
EC50 [5]: 4.58 µM (active)
CC50 [6]: > 20 µM (active)

CNc1nnc(-c2cc3cc(Cl)ccc3oc2=O)s1
IC50 [7]: > 100 µM (inactive)
IC50 (Estrogen receptor): 11.1 µM (active)
IC50 [8]: > 100 µM (inactive)

O=C(c1ccccn1)N(Cc1ccco1)C1(C(=O)NC2CCCCC2)CCCCC1
EC50 [9]: 0.821 µM (active)
IC50 [10]: > 32 µM (inactive)
IC50 [11]: > 32 µM (inactive)
EC50 (Mu-type opioid receptor [12]): > 32 µM (inactive)
EC50 [13]: < 0.5 µM
EC50 [14]: 0.22 µM
EC50 [15]: > 32 µM (inactive)
EC50 (Mu-type opioid receptor [16]): > 32 µM (inactive)
EC50 [17]: > 32 µM (inactive)
EC50 [18]: 0.125 µM (active)
IC50 [19]: > 32 µM (inactive)
IC50 (Mu-type opioid receptor [20]): > 32 µM (inactive)

Oc1ccccc1C=N[n+]1ccccc1
IC50 [21]: > 100 µM (inactive)
IC50 [22]: 5.33 µM (active)
IC50 [23]: 2.88 µM (active)
IC50 [24]: 5.32 µM (active)

CCN(CC)CCNC(=O)c1cc(-c2cccnc2)nc2ccc(S(=O)(=O)N3CCC(C)CC3)cc12
CC50 (Vero): 9.06 µM (active)
EC50 [25]: > 100 µM (inactive)

O=C(O)Cc1sc(Nc2ccc(F)cc2)nc1-c1cccs1
IC50 [26]: > 50 µM (inactive)
IC50 [27]: 9.21 µM (active)

O=c1c2ccccc2sn1-c1cccc(I)c1
IC50 (Phosphomannomutase 2): > 100 µM (inactive)

O=C(COc1ccccc1)N/N=C/c1ccc([N+](=O)[O-])o1
EC50 [28]: > 60 µM (not active)
AC50 [29]: 21.5 µM (active)
EC50 [30]: 0.122 µM (active)
EC50 [31]: 7.39 µM (active)
EC50 [32]: 6.95 µM (active)
AC50 (Trypanosoma cruzi): 0.317 µM (active)
AC50 [33]: 21.2 µM (active)

CC(C)(C)c1nn(-c2ccccc2)c2[nH]c(=O)c(CNCc3ccc4c(c3)OCO4)cc12
CC50 [3]: 27.2 µM (active)
IC50 [34]: 2.67 µM (active)

Source: ChEMBL document CHEMBL1201862, “PubChem BioAssay data set” (2004)
